Assay results as given in patent US4338331A, “Isoindoline derivative and a therapeutic composition thereof” (priority 1979, dated 1982).
Where “and” joins values, the source holds several entries; their conditions need not be identical. Equal entries are not always repeated.

Experiments:
Type in all cases: in vivo, Wistar rat
female Wistar rats [1] = assay: Diuretic and saluretic activity: excretion of an aqueous saline load (TABLE 1); details: 5 mg/kg oral
Procedure: (§1) Both the CM/1 and the Indapamide were administered orally after being suitably dissolved in the following solvent:
(§2) The controls were treated with an equal volume of solvent. The experiments were carried out on animals which had regularly fasted for at least 12 hours, but had free access to water.
(§3) The sodium and potassium in the urine were determined by a photometric method.
The effect on the excretion of an aqueous saline load was first checked. 18 female Wistar rats were used divided into three groups, one of 8 and two of 5, and these were treated in the following manner:
GROUP A: CONTROLS 1 ml of solvent made up to 50 ml with 0.9% sodium chloride solution, administered by gastric probe, per kg of body weight (=50 ml/kg in terms of volume);
GROUP B: INDAPAMIDE 5 mg/kg in 1 ml/kg of solvent made up to 50 ml/kg with sodium chloride solution, administered by gastric probe;
GROUP C: CM/1,5 mg/kg using the same method as for the Indapamide.
The rats were placed immediately in individual metabolic cages for collecting the urine during the three hours subsequent to the load. The quantity of urine excreted is given as a percentage of the quantity administered. The sodium and potassium are expressed in mEq/3h.
Values of P less than 0.05 have been considered significant.

female Wistar rats [2] = assay: Effect on spontaneous diuresis (TABLE 3); details: 5 mg/kg oral; for Excreted sodium/potassium ratio: 12 h; for Potassium excretion / Sodium excretion: spontaneous diuresis
Procedure: These investigations were carried out on Wistar rats of both sexes, having a body weight which is specified in each case in the relative tables, which compare the results with Indapamide. Both the CM/1 and the Indapamide were administered orally after being suitably dissolved in the following solvent:
as §2, §3
Finally, the effect on the new product of spontaneous diuresis was determined.
These investigations were carried out on 15 female Wistar rats having a body weight varying from 230 to 260 g, and divided at random into three groups of 5. The animals were kept in individual metabolic cages overnight for a period of 12 hours in order to collect the urine spontaneously excreted. One group was treated as usual with 1 ml/kg of solvent by means of a gastric probe, and the other two were treated respectively with 5 mg/kg of Indapamide and 5 mg/kg of CM/1. The sodium and potassium were analysed as usual in the urine collected.

male rats = assay: Diuretic and saluretic activity: excretion of a load of distilled water (TABLE 2); details: 5 mg/kg oral + aqueous load
Procedure: as §1, §2, §3
The rats were then immediately placed in individual metabolic cages. The urine was collected over 4 hours. The quantity has been expressed in the usual manner as a percentage of the volume administered.
Sodium and potassium were also analysed, and these have been expressed as mEq/4h.
After two days, in the preceding manner, the same rats were treated with Indapamide, and after a further two days with the product CM/1. In the interval between one test and the other, the rats were housed and fed in the normal manner. The dose used for both compounds was the same as previously, i.e. 5 mg/kg.

[3] = saline load, mean ± standard error, n = 5

CC1Cc2ccccc2N1NC(=O)c1ccc(Cl)c(S(N)(=O)=O)c1 (stereo not drawn) [Indapamide, N-(3-sulphamyl-4-chlorobenzamido)-2-methylindoline, reference compound]
Urine excretion of load in percent of quantity administered (cumulative excretion), 1 hour (female Wistar rats [1]; individual rats): 16.7% and 12.5% and 8.7% and 6.7% | Urine excretion of load in percent of quantity administered (cumulative excretion), 2 hours (female Wistar rats [1]; individual rats): 50.0% and 37.5% and 26.1% and 30.8% and 52.2% | Urine excretion of load in percent of quantity administered (cumulative excretion), 3 hours (female Wistar rats [1]; individual rats): 83.3% and 81.2% and 65.2% and 69.2% and 100.0% | Urine excretion of load in percent of quantity administered (cumulative excretion), 1 hour (female Wistar rats [1]; mean ± standard error, n = 5): 10.66 ± 1.77% | Urine excretion of load in percent of quantity administered (cumulative excretion), 2 hours (female Wistar rats [1]; mean ± standard error, n = 5): 39.32 ± 5.15% | diuretic and saluretic effect (female Wistar rats [1]; relative to the controls): significant diuretic and saluretic effect relative to the controls | ratio of the sodium to the potassium excreted during the 3 hours (female Wistar rats [1]; saline load): 4.48 | Potassium excretion (female Wistar rats [1]; saline load, individual rats): 0.36 mEq/3h and 0.38 mEq/3h and 0.28 mEq/3h and 0.31 mEq/3h and 0.33 mEq/3h | Sodium excretion (female Wistar rats [1]; saline load, individual rats): 1.50 mEg/3h and 1.45 mEg/3h and 1.33 mEg/3h and 1.61 mEg/3h and 1.55 mEg/3h | Potassium excretion (female Wistar rats [1]; [3]): 0.332 ± 0.0177 mEq/3h | Sodium excretion (female Wistar rats [1]; [3]): 1.488 ± 0.047 mEg/3h | excreted sodium and potassium (female Wistar rats [1]; versus controls): significantly higher than the controls | diuretic action (female Wistar rats [2]): marked diuretic action | sodium and potassium excretion (female Wistar rats [2]): increased | Excreted sodium/potassium ratio (female Wistar rats [2]; individual rats): 1.170 and 1.417 and 1.803 and 1.346 and 1.555 | Excreted sodium/potassium ratio (female Wistar rats [2]; mean ± standard error, n = 5): 1.4582 ± 0.106 | ml of urine collected in 12 hours (female Wistar rats [2]; individual rats): 11.5 mL and 13.7 mL and 18.6 mL and 14.5 mL and 15.5 mL | ml of urine collected in 12 hours (female Wistar rats [2]; mean ± standard error, n = 5): 14.76 ± 1.16 mL | Potassium excretion (female Wistar rats [2]; individual rats): 4.560 mEq/12h and 3.356 mEq/12h and 3.760 mEq/12h and 5.776 mEq/12h and 4.352 mEq/12h | Sodium excretion (female Wistar rats [2]; individual rats): 5.335 mEq/12h and 4.756 mEq/12h and 6.780 mEq/12h and 7.775 mEq/12h and 6.767 mEq/12h | Potassium excretion (female Wistar rats [2]; mean ± standard error, n = 5): 4.3608 ± 0.413 mEq/12h | Sodium excretion (female Wistar rats [2]; mean ± standard error, n = 5): 6.2826 ± 0.544 mEq/12h | diuretic and saluretic action (male rats): significant diuretic and saluretic action | RATIO Na/K (sodium to potassium excreted) (male rats; 4 h, average): 1.6764 | Cumulative percent excretion at 1 hour from load (male rats; individual rats): 25.8% and 35.7% and 0.0% and 27.6% and 51.6% | Cumulative percent excretion at 2 hours from load (male rats; individual rats): 83.9% and 92.8% and 42.9% and 82.8% and 101.7% | Cumulative percent excretion at 3 hours from load (male rats; individual rats): 116.1% and 107.2% and 85.8% and 110.4% and 121.1% | Cumulative percent excretion at 4 hours from load (male rats; individual rats): 138.7% and 107.2% and 114.4% and 110.4% and 140.5% | Potassium excretion (male rats; individual rats): 0.00998 mEq/4h and 0.00543 mEq/4h and 0.00814 mEq/4h and 0.00692 mEq/4h and 0.01579 mEq/4h | Sodium excretion (male rats; individual rats): 0.01808 mEq/4h and 0.00771 mEq/4h and 0.01403 mEq/4h and 0.01077 mEq/4h and 0.02694 mEq/4h | Cumulative percent excretion at 1 hour from load (male rats; mean of 5 rats): 28.14% | Cumulative percent excretion at 2 hours from load (male rats; mean of 5 rats): 80.82% | Cumulative percent excretion at 3 hours from load (male rats; mean of 5 rats): 108.12% | Cumulative percent excretion at 4 hours from load (male rats; mean of 5 rats): 122.24 ± 4.47% | Potassium excretion (male rats; mean of 5 rats): 0.009252 mEq/4h | Sodium excretion (male rats; mean of 5 rats): 0.01551 mEq/4h
